The source of these data is patent US20230090255A1, “MAGL INHIBITOR, PREPARATION METHOD THEREFOR AND USE THEREOF” (LUNAN PHARMACEUTICAL GROUP CORPORATION, priority 2019, published 2023).

Counter-ions that a name gives are not always drawn.

The test system of series [1] is mice forced swimming test. In words: Mice forced swimming test. It is filed as in vivo, ICR mice. The note with it: for Accumulated immobility time: forced swimming, 6 min, 5 mg/kg intragastric once per day 10 d, 1 h after final administration. As for the experimental part: (§1) Male ICR mice having a body weight of 18-22 g. The animals were active on a schedule of normal illumination for 12 h and in the dark for 12 h. Environmental temperature and relative humidity were relatively kept for 22±1° C. and 55±5%.
(§2) There were 7 groups of laboratory mice, 10 pieces each group, set as a control group (normal saline), a positive control group (fluoxetine hydrochloride capsule, 5 mg/kg), 5 MAGLZ-II series of administration treatment groups: MAGLZ-II-06, MAGLZ-II-07, MAGLZ-II-11, MAGLZ-II-17 and MAGLZ-II-18, respectively, with an administration concentration of 5 mg/kg.
(§3) All medicaments were used once per day via intragastric administration with a dose of 20 mL/kg (body weight), lasting for 10 d. 1 h later after the final administration, the detection of animal behaviors was started.
Mice forced swimming test was performed according to the method established by Porsolt (Porsolt R D. Behavioural despair in mice: A primary screening test for antidepressants[J]. Arch. Int. Pharmacolodyn. 1977, 229). […] Each mouse was judged as still when stopped struggling, kept suspension in water and only made necessary movement to keep the head above the water.
(§4) All data are shown by x̅±SD, and the comparison among groups is analyzed by one-way variance.

In series [2] the test system is mice tail suspension test. Briefly: Mice tail suspension test. It is filed as in vivo, ICR mice. Conditions: final 4 min of 6 min, 5 mg/kg intragastric once per day 10 d. The procedure: as §1, §2, §3
The tail suspension test (TST) was performed by the method established by Porsolt, et al. (Porsolt R D, Le Pichon M, Jalfre M. Depression: a new animal model sensitive to antidepressant treatments[J]. Nature, 1977, 266(5604):730-732). Mice were respectively suspended on the tail portions with tail suspension clamps at a distance of 10 mm away from the tail portion of the box (250 mm×250 mm×300 mm) and a distance of 5 cm where the head of each mouse was away from the bottom portion. Noise was tested in a dark room having minimum background, and each mouse was suspended for 6 min, and an immobility time was recorded at intervals in the final 4 min. Judgment standard: the mice stopped struggling and kept still completely.
as §4

Series [3] has as its system reserpine-induced mice depression. In words: Reserpine-induced mice depression. It is filed as in vivo, ICR mouse. The note with it: for Eyelid closure: 2 h after reserpine 4 mg/kg. Details: Awakening / Finger contact / Head touch / Fear / Autonomic activity / Eyelid closure / Upright: scale not given here. The procedure:
• Species: ICR mouse • Microbiological level: SPF • Quantity and sex of the animals purchased: male: 75; female: 75 • Quantity and sex of the animals used: male: 75; female: 75 • Body weight: 13-18 g when accepted
Group design: there were 50 pieces for each batch of animals and 3 batches in total; each batch of animals were randomly divided into 5 groups; low, middle and high-dose groups of the samples for test, blank control group and model group; a sample for test was tested per batch.
3.1 Animals were administrated via subcutaneous injection per day with doses of 4, 8 and 16 mg/kg for 6 d in total. 2 h later after the final administration, each animal was subcutaneously injected with 4 mg/kg reserpine except the blank control group; afterwards, indicators, such as, awakening, finger contact, fear, head touch, autonomic activity, upright and eyelid closure were determined 2 h later.
Data statistics and analysis were completed via a computer by SPSS 17.0 software and office 2016, and data statistics was inspected by Kruskal-Wallis. If the Kruskal-Wallis inspection result is significant ((P<0.05), multiple comparison inspection is further performed by a Mann-Whitney U nonparametric test method.

Series [4] in a line: Tissue distribution test in mice. It is filed as in vivo. Details: content in the brain (tissue distribution): unit not given here. The note with it: 16 mg/kg subcutaneous injection.
For series [5], the target named is T1, recombinant human protein MAGL (Homo sapiens, UniProt Q99685).
T1 construct: purchased Cayman
T1 sequence (Q99685 1-303): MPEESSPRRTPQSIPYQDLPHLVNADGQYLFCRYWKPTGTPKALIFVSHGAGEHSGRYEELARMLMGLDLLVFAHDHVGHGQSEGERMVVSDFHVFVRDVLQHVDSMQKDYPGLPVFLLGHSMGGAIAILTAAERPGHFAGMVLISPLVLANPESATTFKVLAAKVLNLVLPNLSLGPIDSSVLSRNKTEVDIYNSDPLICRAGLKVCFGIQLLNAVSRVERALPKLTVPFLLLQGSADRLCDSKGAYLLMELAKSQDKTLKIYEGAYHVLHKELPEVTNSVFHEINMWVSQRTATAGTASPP
Briefly: MAGL enzyme analysis (Cayman MAGL inhibitor screening kit). It is filed as biochemical. Conditions: 4-nitrophenylacetic acid substrate, absorbance 410 nm, read-out: MAGLXIC50. The procedure:
150 µL 1Xassay buffer, 10 µL recombinant human protein MAGL and 10 µL different concentrations of MAGL inhibitors (six points within 1 nM to 1000 nM) were added to per well of a 96-well plate. JZL195 (a positive control inhibitor) served as a positive control well, after incubation for 5 min at room temperature, per well was added with 10 µL MAGL substrate, and […] were vibrated for 10 s and placed for 10 min at room temperature, then an absorbance was detected at 410 nm. […] Graphad Prism 5.0 was taken to calculate IC50 curves fitting each inhibitor.

Take `CNCCC(Oc1ccc(C(F)(F)F)cc1)c1ccccc1` (stereo not drawn) [Fluoxetine hydrochloride capsule, Fluoxetine hydrochloride, reference compound]: in series [1] (5 mg/kg intragastric 10 d, P<0.05), the “accumulated immobility time of mice forced swimming test, in words” value was “obviously shorten”. In addition, the Accumulated immobility time in series [1] came to 92.64±29.17 S; in series [2], 92.19±23.63 S.
As for `O=C(Nc1cccc(O)c1)C1CCN(C(=O)c2ccc(Cl)cc2)CC1` [MAGLZ-II-06], the figures for the Accumulated immobility time in series [1] and in series [2] were 89.23±46.37 S and 90.73±30.51 S, respectively.
The corresponding values for `COc1cccc(C(=O)N2CCC(C(=O)Nc3ccc(Cl)cc3)CC2)c1` [MAGLZ-II-07] are 91.31±41.85 S and 89.66±31.52 S.
As for `O=C(Nc1cccc(Cl)c1)C1CCN(C(=O)c2ccc3ccccc3c2)CC1` [MAGLZ-II-17], in series [3] (4, 8 and 16 mg/kg sc 6 d), the “effect on reserpine-induced depression (conclusion)” value is on record as “may enhance the effect”. Also, the Eyelid closure is listed as 0.25±0.66 in series [3] (high dose 16 mg/kg sc 6 d), 2.25±0.66 in series [3] (low dose 4 mg/kg sc 6 d) and 1±1.00 in series [3] (middle dose 8 mg/kg sc 6 d). The “content in the brain, ranking of the test substances” value in series [4] is recorded as “ranking the second”. The “content in the brain (tissue distribution)” value is reported as 2.9 in series [4] (1.0 h), 9.4 in series [4] (2.0 h) and 4.8 in series [4] (5.0 h). Further, the IC50 in series [5] turned out to be 15 nM. In addition, the Accumulated immobility time is given as 79.38±41.67 S in series [1] and 89.87±29.68 S in series [2].
